Test results published in US10538491B2, “4,5-substituted picolinamide and picolinonitrile metabotropic glutamate receptor 2 negative allosteric modulators” (Vanderbilt University, priority 2015, dated 2020).

Target: rat mGlu2 (Rattus norvegicus (Rat), UniProt P31421)
Assay: mGlu2 Ca2+ flux assay
Assay type: cell-based
Conditions: for IC50: Gα15 HEK293 cells stably expressing rat mGlu2, glutamate EC80, >10,000 = no plateau, >30,000 = no measurable activity; for remaining activity at 30 µM: amplitude of response in the presence of 30 μM test compound as percentage of maximal response to glutamate, read-out: rat mGlu2 Glu max; for NAM designation: concentration-dependent decrease in the glutamate EC80 response
Experimental: Gα15 HEK293 cells stably expressing rat mGlu2 were plated in black-walled, clear-bottomed, poly-D-lysine coated 384-well plates in 20 μL of assay medium (DMEM containing 10% dialyzed FBS, 20 mM HEPES, and 1 mM sodium pyruvate) at a density of 12K cells/well. The cells were grown overnight at 37° C. in the presence of 5% CO2. The next day, medium was removed and the cells incubated with 20 μL of 2.3 μM Fluo-4, AM prepared as a 2.3 mM stock in DMSO and mixed in a 1:1 ratio with 10% (w/v) pluronic acid F-127 and diluted in assay buffer (Hank's balanced salt solution, 20 mM HEPES, and 2.5 mM probenecid) for 45 minutes at 37° C. Dye was removed, 20 μL of assay buffer was added, and the plate was incubated for 5 minutes at room temperature.
Ca^2+ flux was measured using the Functional Drug Screening System (FDSS7000, Hamamatsu, Japan). After establishment of a fluorescence baseline for about 3 seconds, the compounds of the present invention were added to the cells, and the response in cells was measured. 2.3 minutes later an EC20 concentration of the mGlu2 receptor agonist glutamate was added to the cells, and the response of the cells was measured for 1.9 minutes; an EC80 concentration of agonist was added and readings taken for an additional 1.7 minutes. All test compounds were dissolved and diluted to a concentration of 10 mM in 100% DMSO. Compounds were then serially diluted 1:3 in DMSO into 10 point concentration response curves, transferred to daughter plates, and further diluted into assay buffer to a 2× stock. Calcium fluorescence measures were recorded as fold over basal fluorescence; raw data was then normalized to the maximal response to glutamate. Antagonism of the agonist response of the mGlu2 receptor in the present invention was observed as a decrease in response to nearly maximal concentrations of glutamate in the presence of compound compared to the response to glutamate in the absence of compound.
The raw data file containing all time points was used as the data source in the analysis template. This was saved by the FDSS as a tab-delimited text file. Data were normalized using a static ratio function (F/F0) for each measurement of the total 360 values per well divided by each well's initial value. Data were then reduced to peak amplitudes (Max−Initial Min) using a time range that starts approximately 3 seconds prior to the glutamate EC80 addition and continues for approximately 90 seconds. This is sufficient time to capture the peak amplitude of the cellular calcium response. Individual amplitudes were expressed as % ECMax by multiplying each amplitude by 100 and then dividing the product by the mean of the amplitudes derived from the glutamate ECMax-treated wells. IC50 values for test compounds were generated by fitting the normalized values versus the log of the test compound concentration (in mol/L) using a 4 parameter logistic equation where none of the parameters were fixed. Each of the three values collected at each concentration of test compound were weighted evenly.
For NAMs, potency (IC50) and maximum response (% Glu Max), i.e. the amplitude of response in the presence of 30 μM test compound as a percentage of the maximal response to glutamate, are reported. […] Compounds with no measurable activity are designated as “>30,000 nM” since the top concentration of compound tested in the assay is 30 μM.

Chain of rat mGlu2 (P31421 19-872): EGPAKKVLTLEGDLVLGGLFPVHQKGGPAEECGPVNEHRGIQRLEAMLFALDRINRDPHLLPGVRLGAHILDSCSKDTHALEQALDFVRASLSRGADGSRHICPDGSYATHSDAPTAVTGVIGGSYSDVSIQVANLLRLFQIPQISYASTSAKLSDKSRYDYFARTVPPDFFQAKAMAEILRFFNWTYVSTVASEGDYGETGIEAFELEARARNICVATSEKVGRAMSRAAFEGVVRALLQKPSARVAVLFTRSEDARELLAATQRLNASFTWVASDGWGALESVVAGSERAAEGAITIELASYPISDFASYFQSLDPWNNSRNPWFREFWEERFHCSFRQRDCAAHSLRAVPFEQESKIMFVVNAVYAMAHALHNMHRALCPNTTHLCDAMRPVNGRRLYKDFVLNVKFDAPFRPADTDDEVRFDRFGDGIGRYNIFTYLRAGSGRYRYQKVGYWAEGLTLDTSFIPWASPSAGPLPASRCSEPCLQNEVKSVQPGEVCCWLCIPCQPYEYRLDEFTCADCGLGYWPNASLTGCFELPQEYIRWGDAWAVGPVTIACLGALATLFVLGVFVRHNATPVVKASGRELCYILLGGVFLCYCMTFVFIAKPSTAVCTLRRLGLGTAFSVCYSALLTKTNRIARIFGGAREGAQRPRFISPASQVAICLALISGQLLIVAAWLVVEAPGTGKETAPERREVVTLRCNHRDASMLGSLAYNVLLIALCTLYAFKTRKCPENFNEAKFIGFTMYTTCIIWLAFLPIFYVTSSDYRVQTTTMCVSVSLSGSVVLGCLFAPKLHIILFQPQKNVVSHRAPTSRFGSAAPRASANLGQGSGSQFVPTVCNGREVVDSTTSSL

IC50 | remaining activity at 30 µM | NAM designation | Compound
6.85 µM | 5.12% | – | N#Cc1cc(-c2ccc(F)cc2)c(NCC2CCOCC2)cn1 [Compound 1, 4-(4-fluorophenyl)-5-(((tetrahydro-2H-pyran-4-yl)methyl)amino)picolinonitrile]
> 10 µM | 47.5% | – | N#Cc1cc(-c2ccc(F)cc2)c(NCCN2CCOCC2)cn1 [Compound 2, 4-(4-fluorophenyl)-5-((2-morpholinoethyl)amino)picolinonitrile]
> 10 µM | 52.4% | – | CN(CCN1CCOCC1)c1cnc(C#N)cc1-c1ccc(F)cc1 [Compound 3, 4-(4-fluorophenyl)-5-(methyl(2-morpholinoethyl)amino)picolinonitrile]
> 10 µM | 46.6% | – | CC(CN1CCOCC1)Nc1cnc(C#N)cc1-c1ccc(F)cc1 (centres unmarked) [Compound 4, 4-(4-fluorophenyl)-5-((1-morpholinopropan-2-yl)amino)picolinonitrile]
> 10 µM | 36.2% | – | CC(CNc1cnc(C#N)cc1-c1ccc(F)cc1)N1CCOCC1 (centres unmarked) [Compound 5, 4-(4-fluorophenyl)-5-((2-morpholinopropyl)amino)picolinonitrile]
> 10 µM | 49.2% | – | N#Cc1cc(-c2ccc(F)cc2)c(NCCCN2CCOCC2)cn1 [Compound 6, 4-(4-fluorophenyl)-5-((3-morpholinopropyl)amino)picolinonitrile]
> 30 µM | – | – | N#Cc1cc(-c2ccc(F)cc2)c(OCc2ccc(Cl)nc2)cn1 [Compound 7, 5-((6-Chloropyridin-3-yl)methoxy)-4-(4-fluorophenyl)picolinonitrile]
0.429 µM | 2% | – | NC(=O)c1cc(-c2ccc(F)cc2)c(OCc2ccc(Cl)nc2)cn1 [Compound 8, 5-((6-chloropyridin-3-yl)methoxy)-4-(4-fluorophenyl)picolinamide]
> 30 µM | – | – | N#Cc1cc(-c2ccc(F)cc2)c(OCC2CCOCC2)cn1 [Compound 9, 4-(4-fluorophenyl)-5-((tetrahydro-2H-pyran-4-yl)methoxy)picolinonitrile]
> 10 µM | 37% | – | N#Cc1cc(-c2ccc(F)cc2)c(OCc2cccnc2)cn1 [Compound 10, 4-(4-fluorophenyl)-5-(pyridin-3-ylmethoxy)picolinonitrile]
7.11 µM | 29.9% | – | N#Cc1cccc(COc2cnc(C#N)cc2-c2ccc(F)cc2)c1 [Compound 11, 5-((3-cyanobenzyl)oxy)-4-(4-fluorophenyl)picolinonitrile]
> 30 µM | – | – | N#Cc1cc(-c2ccc(F)cc2)c(OCc2cc(F)cc(F)c2)cn1 [Compound 12, 5-((3,5-difluorobenzyl)oxy)-4-(4-fluorophenyl)picolinonitrile]
> 30 µM | – | – | N#Cc1cc(-c2ccc(F)cc2)c(OCc2cncc(Cl)c2)cn1 [Compound 13, 5-((5-chloropyridin-3-yl)methoxy)-4-(4-fluorophenyl)picolinonitrile]
> 30 µM | – | – | Cc1ccc(COc2cnc(C#N)cc2-c2ccc(F)cc2)cn1 [Compound 14, 4-(4-fluorophenyl)-5-((6-methylpyridin-3-yl)methoxy)picolinonitrile]
> 30 µM | – | – | COc1ccc(COc2cnc(C#N)cc2-c2ccc(F)cc2)cn1 [Compound 15, 4-(4-fluorophenyl)-5-((6-methoxypyridin-3-yl)methoxy)picolinonitrile]
> 30 µM | – | – | CC(Oc1cnc(C#N)cc1-c1ccc(F)cc1)c1cccnc1 (centres unmarked) [Compound 16, 4-(4-fluorophenyl)-5-(1-(pyridin-3-yl)ethoxy)picolinonitrile]
1.58 µM | 62% | (Partial NAM) | N#Cc1cc(-c2ccc(F)cc2)c(OCc2ccncc2)cn1 [Compound 17, 4-(4-fluorophenyl)-5-(pyridin-4-ylmethoxy)picolinonitrile]

IC50 | remaining activity at 30 µM | NAM designation | Compound
2.69 µM | 47.5% | (Partial NAM) | Cc1cc(COc2cnc(C#N)cc2-c2ccc(F)cc2)ccn1 [Compound 18, 4-(4-fluorophenyl)-5-((2-methylpyridin-4-yl)methoxy)picolinonitrile]
> 10 µM | 27.1% | – | CC(Oc1cnc(C#N)cc1-c1ccc(F)cc1)c1ccncc1 (centres unmarked) [Compound 19, 4-(4-fluorophenyl)-5-(1-(pyridin-4-yl)ethoxy)picolinonitrile]
> 10 µM | 37.9% | – | N#Cc1cc(-c2ccc(F)cc2)c(OCc2ccnc(C(F)(F)F)c2)cn1 [Compound 20, 4-(4-fluorophenyl)-5-((2-(trifluoromethyl)pyridin-4-yl)methoxy)picolinonitrile]
3.49 µM | 16.1% | – | N#Cc1cc(-c2ccc(F)cc2)c(OCc2ccc3nccn3c2)cn1 [Compound 21, 4-(4-fluorophenyl)-5-(imidazo[1,2-a]pyridin-6-ylmethoxy)picolinonitrile]
> 10 µM | 11.1% | – | Cn1ccc(COc2cnc(C#N)cc2-c2ccc(F)cc2)n1 [Compound 22, 4-(4-fluorophenyl)-5-((1-methyl-1H-pyrazol-3-yl)methoxy)picolinonitrile]
> 30 µM | – | – | N#Cc1cc(-c2ccc(F)cc2)c(OCCc2cccnc2)cn1 [Compound 23, 4-(4-fluorophenyl)-5-(2-(pyridin-3-yl)ethoxy)picolinonitrile]
> 30 µM | – | – | N#Cc1cc(-c2ccc(F)cc2)c(OCCN2CCOCC2)cn1 [Compound 24, 4-(4-fluorophenyl)-5-(2-morpholinoethoxy)picolinonitrile]
> 10 µM | 39% | – | N#Cc1cc(-c2ccc(F)cc2)c(OCCOc2cccnc2)cn1 [Compound 25, 4-(4-fluorophenyl)-5-(2-(pyridin-3-yloxy)ethoxy)picolinonitrile]
> 30 µM | – | – | N#Cc1cc(-c2ccc(F)cc2)c(OC2CCN(c3ccnc(C(F)(F)F)c3)CC2)cn1 [Compound 26, 4-(4-fluorophenyl)-5-((1-(2-(trifluoromethyl)pyridin-4-yl)piperidin-4-yl)oxy)picolinonitrile]
> 30 µM | – | – | N#Cc1cc(-c2ccc(F)cc2)c(OC2CCN(c3ccnc(C(F)(F)F)c3)C2)cn1 (centres unmarked) [Compound 27, 4-(4-fluorophenyl)-5-((1-(2-(trifluoromethyl)pyridin-4-yl)pyrrolidin-3-yl)oxy)picolinonitrile]
> 30 µM | – | – | N#Cc1cc(-c2ccc(F)cc2)c(OC2CN(c3ccnc(C(F)(F)F)c3)C2)cn1 [Compound 28, 4-(4-fluorophenyl)-5-((1-(2-(trifluoromethyl)pyridin-4-yl)azetidin-3-yl)oxy)picolinonitrile]
4.25 µM | 65.2% | (Partial NAM) | N#Cc1cc(-c2ccc(F)cc2)c(OCCOCc2ccccc2)cn1 [Compound 29, 5-(2-(benzyloxy)ethoxy)-4-(4-fluorophenyl)picolinonitrile]
0.401 µM | 18.7% | (Partial NAM) | NC(=O)c1cc(-c2ccc(F)cc2)c(OCc2cc(F)cc(F)c2)cn1 [Compound 30, 5-((3,5-difluorobenzyl)oxy)-4-(4-fluorophenyl)picolinamide]
0.395 µM | 1.46% | (Partial NAM) | COc1ccc(-c2cc(C(N)=O)ncc2OCc2cc(F)cc(F)c2)c(F)c1 [Compound 31, 5-((3,5-difluorobenzyl)oxy)-4-(2-fluoro-4-methoxyphenyl)picolinamide]
> 10 µM | 35.1% | – | NC(=O)c1cc(-c2ccc(C(F)(F)F)nc2)c(OCc2cc(F)cc(F)c2)cn1 [Compound 32, 5′-((3,5-difluorobenzyl)oxy)-6-(trifluoromethyl)[3,4′-bipyridine]-2′-carboxamide]
1.69 µM | 2.29% | – | NC(=O)c1cc(-c2ccc(F)cc2)c(OCc2ccc(Br)cc2)cn1 [Compound 33, 5-((4-bromobenzyl)oxy)-4-(4-fluorophenyl)picolinamide]
